Reference: patent US20030232851A1, “Viral treatment” (The Procter & Gamble Company, priority 1999, published 2003)
Several values for one entry are separate records, joined by “and”; a condition that tells them apart may be missing. Identical values can stand only once.

Columns and labels:
CEMROD = CEMROD screening: toxicity values (XTT); format: cell-based, human; set-up: Toxicity Values, samples 1-3 / Toxicity Values, average: unit not given here
Procedure: After 6 days (or the experimental period) of incubation at 37° C. in a 5% carbon dioxide incubator the test plates are analyzed by staining with the tetrazolium dye XTT. […] On day 6 post-infection plates are removed from the incubator and observed. […] The results of the macroscopic observations were confirmed and enhanced by further microscopic analysis.
Phenazine methosulfate (PMS) solution is prepared at 15 mg/ml in PBS and stored in the dark at −20° C. […] Fifty microliters of XTT/PMS is added to each well of the plate and the plate is reincubated or 4 hours at 37° C. […] Percent cell reduction, percent cell viability, IC25,50, & 95 and TC25,50, & 95 can then be calculated.

HIV-2 cell line, CEMROD = assay: Long term in vitro study, CEMROD, reverse transcriptase; format: cell-based
Procedure: A microtiter-based reveres transcriptase (RT) reaction is utilized (Buckheit et al (1991) AIDS Research and Human Retroviruses 7:295-302). Tritiated thymidine triphosphate (NEN)(TTP) is resuspended in distilled water at 5 Ci/ml. Poly rA and oligo dT are prepared as a stock solution which is kept at −20° C. The RT reaction buffer is prepared fresh on a daily basis and consists of 125 μl 1M EGTA, 125 μl water, 125 μl Triton X-100, 50 μl Tris (pH 7.4), 50 μl 1 MDDT, and 40 μl 1M MgCl2. These three solutions are mixed together in a ratio of 1 part TTP, 2.5 parts poly rA:oligo dT, 2.5 parts reaction buffer and 4 parts distilled water. Ten microliters of this reaction mixture is placed in a round bottom microtiter place and 15 μl of virus containing supernatant is added and mixed. The plate is incubated at 37° C. for 60 minutes. Following reaction, the reaction volume is spotted onto filter mats, washed 6 times for 5 minutes each in a 5% sodium phosphate buffer, 2 times for 1 minute each in distilled water, 2 times for 1 minute each in 70% ethanol, and then dried. The dried filter mat is placed in a plastic sample bag, Betaplate scintillation fluid is added and the bag is heat sealed. Incorporated radioactivity is quantified utilizing a Wallac Microbeta scintillation counter.
Acute infection of most established human cell lines with HIV-1 results in the eventual establishment of a constitutive virus-producing chronically infected cell line. The cells can be passaged for long periods of time in culture without loss of virus production. These cells may be utilized to evaluate the effects of anti-HIV compounds on syncytium formation or to evaluate the effects of anti-HIV compounds on levels of virus production from these cells. […] Each of the cells contains an integrated HIV genome or provirus. Chronically infected CEM, H9 and U937 cell lines have been prepared and cultured by Southern Research Institute, Frederick Md. and are available from them.
CEM-SS cells chronically infected with HIV isolate, for example SKI (CEM-SKI) are cultured in RPMI1640 tissue culture medium supplemented with 10% fetal bovine serum and antibiotics. […] CEM-SKI or other infected cells with no added drug are used as the control cells. Cells are allowed to grow to a density of approximately 1×10^6 cells/ml and are then passaged at a 1:10 dilution. […] The drug concentration in the flask is then increased two-fold and the cells maintained as above.
The cell populations contain integrated copies of the HIV genome and constitutively produce HIV at relatively high levels or are latently infected and only produce virus after stimulation with phorbol esters, tumor necrosis factor or IL6 (U1 and ACH2). Reductions in virus products were observed when quantifying supernatant reverse transcriptase activity,
A long term in vitro study of 2-(2-thienyl)-imidazolo [4,5-b]pyridine against an HIV-2 cell line, CEMROD was conducted at three different levels. The results with CEMROD cells were reported at weekly intervals.

[1] = Table 2 duplicate study, 0.32 μg/ml
[2] = Table 2 duplicate study, 1 μg/ml
[3] = Table 2 duplicate study, 1.0 μg/ml
[4] = Table 2 duplicate study, 3.2 μg/ml
[5] = Table 2 duplicate study, 32 μg/ml
[6] = Table 2 duplicate study, 100 μg/ml

c1csc(-c2nc3cccnc3[nH]2)c1 [2-(2-thienyl)-imidazolo [4,5-b]pyridine]
Toxicity Values, % cell control (CEMROD; Table 1, 0.32 μg/ml): 102% | Toxicity Values, average (CEMROD; Table 1, 0.32 μg/ml): 1.144 | Toxicity Values, % cell control (CEMROD; Table 1, 1 μg/ml): 100.1% | Toxicity Values, average (CEMROD; Table 1, 1 μg/ml): 1.122 | Toxicity Values, % cell control (CEMROD; Table 1, 1.0 μg/ml): 81.3% | Toxicity Values, average (CEMROD; Table 1, 1.0 μg/ml): 0.912 | Toxicity Values, % cell control (CEMROD; Table 1, 3.2 μg/ml): 94.1% | Toxicity Values, average (CEMROD; Table 1, 3.2 μg/ml): 1.055 | Toxicity Values, % cell control (CEMROD; Table 1, 32 μg/ml): 28.7% | Toxicity Values, average (CEMROD; Table 1, 32 μg/ml): 0.322 | Toxicity Values, % cell control (CEMROD; Table 1, 100 μg/ml): 7.6% | Toxicity Values, average (CEMROD; Table 1, 100 μg/ml): 0.086 | Toxicity Values, % cell control (CEMROD; [1]): 114.7% | Toxicity Values, average (CEMROD; [1]): 1.088 | Toxicity Values, samples 1-3 (CEMROD; [1]): 1.189 and 1.074 and 1.000 | Toxicity Values, % cell control (CEMROD; [2]): 108.4% | Toxicity Values, average (CEMROD; [2]): 1.028 | Toxicity Values, samples 1-3 (CEMROD; [2]): 1.066 and 1.038 and 0.980 | Toxicity Values, % cell control (CEMROD; [3]): 72.2% | Toxicity Values, average (CEMROD; [3]): 0.684 | Toxicity Values, samples 1-3 (CEMROD; [3]): 0.694 and 0.726 and 0.633 | Toxicity Values, % cell control (CEMROD; [4]): 98.9% | Toxicity Values, average (CEMROD; [4]): 0.938 | Toxicity Values, samples 1-3 (CEMROD; [4]): 1.008 and 0.924 and 0.881 | Toxicity Values, % cell control (CEMROD; [5]): 17.4% | Toxicity Values, average (CEMROD; [5]): 0.165 | Toxicity Values, samples 1-3 (CEMROD; [5]): 0.183 and 0.168 and 0.145 | Toxicity Values, % cell control (CEMROD; [6]): 13.5% | Toxicity Values, average (CEMROD; [6]): 0.128 | Toxicity Values, samples 1-3 (CEMROD; [6]): 0.121 and 0.133 and 0.130 | toxicity (in words) (CEMROD; at the higher concentrations): not toxic | reverse transcriptase data (HIV-2 cell line, CEMROD; 7 μg/ml, day 4): 8506 | reverse transcriptase data (HIV-2 cell line, CEMROD; 7 μg/ml, day 11): 9471 | reverse transcriptase data (HIV-2 cell line, CEMROD; 7 μg/ml, day 18): 6147 | reverse transcriptase data (HIV-2 cell line, CEMROD; 7 μg/ml, day 25): 6302 | reverse transcriptase data (HIV-2 cell line, CEMROD; 7 μg/ml, day 32): 5482 | reverse transcriptase data (HIV-2 cell line, CEMROD; 7 μg/ml, day 39): 7253 | reverse transcriptase data (HIV-2 cell line, CEMROD; 7 μg/ml, day 46): 4822 | reverse transcriptase data (HIV-2 cell line, CEMROD; 7 μg/ml, day 53): 7257 | reverse transcriptase data (HIV-2 cell line, CEMROD; 7 μg/ml, day 60): 7019 | reverse transcriptase data (HIV-2 cell line, CEMROD; 7 μg/ml, day 67): 7215 | reverse transcriptase data (HIV-2 cell line, CEMROD; 7 μg/ml, day 71): 9052 | reverse transcriptase data (HIV-2 cell line, CEMROD; 7 μg/ml, day 74): 6240 | reverse transcriptase data (HIV-2 cell line, CEMROD; 7 μg/ml, day 88): 10053 | reverse transcriptase data (HIV-2 cell line, CEMROD; 7 μg/ml, day 95): 7482 | reverse transcriptase data (HIV-2 cell line, CEMROD; 7 μg/ml, day 102): 8023 | reverse transcriptase data (HIV-2 cell line, CEMROD; 7 μg/ml, day 109): 13890 | reverse transcriptase data (HIV-2 cell line, CEMROD; 15 μg/ml, day 4): 7447 | reverse transcriptase data (HIV-2 cell line, CEMROD; 15 μg/ml, day 11): 8887 | reverse transcriptase data (HIV-2 cell line, CEMROD; 15 μg/ml, day 18): 5399 | reverse transcriptase data (HIV-2 cell line, CEMROD; 15 μg/ml, day 25): 5040 | reverse transcriptase data (HIV-2 cell line, CEMROD; 15 μg/ml, day 32): 4695 | reverse transcriptase data (HIV-2 cell line, CEMROD; 15 μg/ml, day 39): 6277 | reverse transcriptase data (HIV-2 cell line, CEMROD; 15 μg/ml, day 46): 2165 | reverse transcriptase data (HIV-2 cell line, CEMROD; 15 μg/ml, day 53): 6546 | reverse transcriptase data (HIV-2 cell line, CEMROD; 15 μg/ml, day 60): 5940 | reverse transcriptase data (HIV-2 cell line, CEMROD; 15 μg/ml, day 67): 3215 | reverse transcriptase data (HIV-2 cell line, CEMROD; 15 μg/ml, day 71): 7256 | reverse transcriptase data (HIV-2 cell line, CEMROD; 15 μg/ml, day 74): 4687 | reverse transcriptase data (HIV-2 cell line, CEMROD; 15 μg/ml, day 88): 8277 | reverse transcriptase data (HIV-2 cell line, CEMROD; 15 μg/ml, day 95): 5116 | reverse transcriptase data (HIV-2 cell line, CEMROD; 15 μg/ml, day 102): 6546 | reverse transcriptase data (HIV-2 cell line, CEMROD; 15 μg/ml, day 109): 10349 | reverse transcriptase data (HIV-2 cell line, CEMROD; 30 μg/ml, day 4): 4426 | reverse transcriptase data (HIV-2 cell line, CEMROD; 30 μg/ml, day 11): 7092 | reverse transcriptase data (HIV-2 cell line, CEMROD; 30 μg/ml, day 18): 3322 | reverse transcriptase data (HIV-2 cell line, CEMROD; 30 μg/ml, day 25): 3212 | reverse transcriptase data (HIV-2 cell line, CEMROD; 30 μg/ml, day 32): 3960 | reverse transcriptase data (HIV-2 cell line, CEMROD; 30 μg/ml, day 39): 4543 | reverse transcriptase data (HIV-2 cell line, CEMROD; 30 μg/ml, day 46): 1245 | reverse transcriptase data (HIV-2 cell line, CEMROD; 30 μg/ml, day 53): 2402 | reverse transcriptase data (HIV-2 cell line, CEMROD; 30 μg/ml, day 60): 2410 | reverse transcriptase data (HIV-2 cell line, CEMROD; 30 μg/ml, day 67): 1843 | reverse transcriptase data (HIV-2 cell line, CEMROD; 30 μg/ml, day 71): 2121 | reverse transcriptase data (HIV-2 cell line, CEMROD; 30 μg/ml, day 74): 1285 | reverse transcriptase data (HIV-2 cell line, CEMROD; 30 μg/ml, day 88): 2543 | reverse transcriptase data (HIV-2 cell line, CEMROD; 30 μg/ml, day 95): 2245 | reverse transcriptase data (HIV-2 cell line, CEMROD; 30 μg/ml, day 102): 2402 | reverse transcriptase data (HIV-2 cell line, CEMROD; 30 μg/ml, day 109): 1140 | reverse transcriptase data on continuation (in words) (HIV-2 cell line, CEMROD; run through 242 days): data remained consistent
